Source: patent publication US20080085247A1, “Composition of Menthyl Lactate and a Mixture of Menthol Isomers” (SYMRISE GMBH & CO. KG, priority 2004, published 2008)

System: facial skin
Assay: Sensory test of cooling sensation, alcohol-free face lotion, 19 trained panelists
Type: in vivo, human
Conditions: 0.3% in alcohol-free face lotion
Method: A sensory test was carried out with a group of 19 trained panelists in order to evaluate the performance of the coolant composition according to the present invention of Example 2 consisting of 15% l-menthyl l-lactate, 57.6% racemic neomenthol, 21.8% racemic menthol, 4.8% racemic neoisomenthol and 0.8% racemic isomenthol) for topical applications.
The cooling sensation of the coolant composition of Example 2 was tested in direct comparison to l-menthyl l-lactate. The mixture according to Example 2 and l-menthyl l-lactate were separately incorporated into samples of an alcohol-free face lotion at a level of 0.3%, based on the total weight of the face lotion.
The presented data are average values. The overall cooling sensation was rated on a scale of 1 to 5 (1=very weak; 5=very strong).

## CC(C)[C@@H]1CC[C@@H](C)C[C@H]1OC(=O)[C@H](C)O [I-menthyl I-lactate, l-menthyl l-lactate]
average
  How long does the cooling sensation last ?: about 9 minutes
  When does the cooling sensation become noticeable?: after 1 minute
average, scale of 1 to 5 (1=very weak; 5=very strong)
  Overall cooling sensation (facial skin): 2.4
Share of panelists answering yes
  Was the cooling sensation pleasant ? yes: yes: 73.7%
